Source: patent US20080247962A1, “Pharmaceutical Compositions Comprising Higher Primary Aliphatic Alcohols and Hmg Coa Reductase Inhibitor and Process of Preparation Thereof” (PANACEA BIOTEC LTD., priority 2004, published 2008)

System: Casein-Starch-Induced Hypercholesterolemia in Rabbits
Assay: Casein-starch-induced hypercholesterolemia in rabbits (serum lipid profile)
Format: in vivo
Design: key to LDL-C level: serum LDL-C in mg/dL, mean±S.E.M
Conditions: for serum total cholesterol level / LDL-C level: mean±S.E.M.; for LDL-C level: in mg/dL (unit assumed)
Experimental: Casein-Starch-Induced Hypercholesterolemia in Rabbits
The observed unexpected synergistic lipid lowering effect of combination of Extract-A and atorvastatin is evidenced by the test conducted in rabbits. Rabbits of either sex were procured from Central Animal House facility; Panacea Biotec Ltd., India. Animals weighing 1.5-2.0 Kg at the time of testing were used. All animals were dosed sequentially by the oral route with Extract-A and/or atorvastatin suspended in 0.5% of carboxymethyl cellulose (CMC). A dosing volume of 2 ml/kg was used for each sequential suspension.
The fasting serum lipid profile (TC, TGs, LDL-C, HDL-C) was estimated before initiation of the experiment. […] Hypercholesterolemia was induced by feeding rabbits with wheat casein-starch diet (g/kg) containing wheat flour 333, cellulose 300, casein 270, water 20, maize oil 10, and mineral mixture (Kroon et al., 1982) for 60 days. Feed consumption was restricted to 100 g/day per animal. The cholesterol level was estimated every 15 days. After 60 days animals with total cholesterol level >150 mg/dl were randomized to treatment (n=6/group). Thereafter, various doses of Extract-A and/or atorvastatin were administered for another 60 days during which animals were fed with casein-starch diet. Blood samples were collected from fasted rabbits and analyzed for any alteration in serum lipid profile after 60 days of test compound(s) administration.
All the data are expressed as mean±S.E.M. (Standard Error of Mean). Student t-test was-used to compare the lipid parameters between animals fed with standard and hypercholesterolemic diet. The difference between various drug treated groups was analyzed by ANOVA followed by Dunnett's test. A value of P<0.05 was considered as statistically significant.

[1] = atorvastatin 2.5 mg/kg p.o., day 0, pre-dose
[2] = atorvastatin 2.5 mg/kg p.o., day 15, pre-dose
[3] = atorvastatin 2.5 mg/kg p.o., day 30, pre-dose
[4] = atorvastatin 2.5 mg/kg p.o., day 60, start of dosing
[5] = atorvastatin 2.5 mg/kg p.o., day 75 (dosing from day 60)
[6] = atorvastatin 2.5 mg/kg p.o., day 90 (dosing from day 60)
[7] = atorvastatin 2.5 mg/kg p.o., day 105 (dosing from day 60)
[8] = atorvastatin 2.5 mg/kg p.o., day 120 (dosing from day 60)
[9] = atorvastatin 5 mg/kg p.o., day 0, pre-dose
[10] = atorvastatin 5 mg/kg p.o., day 15, pre-dose
[11] = atorvastatin 5 mg/kg p.o., day 30, pre-dose
[12] = atorvastatin 5 mg/kg p.o., day 60, start of dosing
[13] = atorvastatin 5 mg/kg p.o., day 75 (dosing from day 60)
[14] = atorvastatin 5 mg/kg p.o., day 90 (dosing from day 60)
[15] = atorvastatin 5 mg/kg p.o., day 105 (dosing from day 60)
[16] = atorvastatin 5 mg/kg p.o., day 120 (dosing from day 60)
[17] = single agents: Extract-A 100 and 200 mg/kg p.o., atorvastatin 2.5 and 5 mg/kg p.o.

CC(C)c1c(C(=O)Nc2ccccc2)c(-c2ccccc2)c(-c2ccc(F)cc2)n1CC[C@@H](O)C[C@@H](O)CC(=O)O [At, atorvastatin]
serum total cholesterol level [1]: 56.83 ± 4.84 mg/dL | LDL-C level [1]: 21.4 ± 8.04 | serum total cholesterol level [2]: 96.00 ± 2.08 mg/dL | LDL-C level [2]: 61.03 ± 1.87 | serum total cholesterol level [3]: 144.83 ± 6.6 mg/dL | LDL-C level [3]: 106.6 ± 5.85 | serum total cholesterol level [4]: 204.66 ± 6.58 mg/dL | LDL-C level [4]: 166.07 ± 4.97 | serum total cholesterol level [5]: 202.5 ± 15.15 mg/dL | LDL-C level [5]: 165.53 ± 14.81 | serum total cholesterol level [6]: 205.83 ± 13.31 mg/dL | LDL-C level [6]: 166.47 ± 13.66 | serum total cholesterol level [7]: 201.33 ± 11.49 mg/dL | LDL-C level [7]: 159.3 ± 12.53 | serum total cholesterol level [8]: 201.16 ± 10.4 mg/dL | LDL-C level [8]: 158.00 ± 12.22 | serum total cholesterol level [9]: 68.50 ± 5.99 mg/dL | LDL-C level [9]: 30.33 ± 6.44 | serum total cholesterol level [10]: 101.16 ± 1.88 mg/dL | LDL-C level [10]: 61.83 ± 1.77 | serum total cholesterol level [11]: 142.16 ± 10.37 mg/dL | LDL-C level [11]: 104.17 ± 11.76 | serum total cholesterol level [12]: 226.67 ± 9.74 mg/dL | LDL-C level [12]: 188.67 ± 10.00 | serum total cholesterol level [13]: 213.16 ± 5.69 mg/dL | LDL-C level [13]: 175.07 ± 5.06 | serum total cholesterol level [14]: 201.83 ± 5.81 mg/dL | LDL-C level [14]: 161.3 ± 6.04 | serum total cholesterol level [15]: 198.17 ± 6.65 mg/dL | LDL-C level [15]: 155.17 ± 6.87 | serum total cholesterol level [16]: 195.50 ± 5.31 mg/dL | LDL-C level [16]: 149.1 ± 4.72 | LDL-C in comparison to hypercholesterolemic control rabbits [17]: reversed | TC in comparison to hypercholesterolemic control rabbits [17]: reversed
